Here are results for 16 compounds from ChEMBL document CHEMBL4411333, “Optimization of Fused Bicyclic Allosteric SHP2 Inhibitors” (J Med Chem, 2019).

Each structure is given as a SMILES string. pIC50: −log10 of the molar value. Calls of active or inactive are those of the source. The rule behind the calls is not given here. Some results are limits rather than exact numbers.

The species entered for data set [1] is Mus musculus. The note with it: 100 mg/kg.
The next data set has as its system KYSE-520 cell line. In words: Antiproliferative activity against human KYSE520 cells after 5 days by Celltiter-Glo reagent-based assay. The note with it: KYSE-520, 5 days. Background: ATP-based viability assays read luminescence as a measure of living cells.
Data set [2] is described as follows: Terminal half life in Sprague-Dawley rat at 1 mg/kg, iv or 5 mg/kg, po. It counts as ADME, organism-based. The settings on record: in vivo, read-out: beta t1/2 (converted).
A short description of data set [3]: Oral bioavailability in Sprague-Dawley rat at 5 mg/kg. It counts as ADME, organism-based. The settings on record: in vivo.
Data set [4] in a line: Volume of distribution in Sprague-Dawley rat at 1 mg/kg, iv or 5 mg/kg, po. Format: ADME, organism-based. The settings on record: in vivo.
The species named for data set [5] is Mus musculus. The note with it: 100 mg/kg. This is another data set of the same source.
Data set [6] has as its target Voltage-gated inwardly rectifying potassium channel KCNH2 (Homo sapiens, UniProt Q12809).
Data set [7] has as its target T1, Tyrosine-protein phosphatase non-receptor type 11 (Homo sapiens, UniProt Q06124).
T1 sequence (Q06124 whole entry): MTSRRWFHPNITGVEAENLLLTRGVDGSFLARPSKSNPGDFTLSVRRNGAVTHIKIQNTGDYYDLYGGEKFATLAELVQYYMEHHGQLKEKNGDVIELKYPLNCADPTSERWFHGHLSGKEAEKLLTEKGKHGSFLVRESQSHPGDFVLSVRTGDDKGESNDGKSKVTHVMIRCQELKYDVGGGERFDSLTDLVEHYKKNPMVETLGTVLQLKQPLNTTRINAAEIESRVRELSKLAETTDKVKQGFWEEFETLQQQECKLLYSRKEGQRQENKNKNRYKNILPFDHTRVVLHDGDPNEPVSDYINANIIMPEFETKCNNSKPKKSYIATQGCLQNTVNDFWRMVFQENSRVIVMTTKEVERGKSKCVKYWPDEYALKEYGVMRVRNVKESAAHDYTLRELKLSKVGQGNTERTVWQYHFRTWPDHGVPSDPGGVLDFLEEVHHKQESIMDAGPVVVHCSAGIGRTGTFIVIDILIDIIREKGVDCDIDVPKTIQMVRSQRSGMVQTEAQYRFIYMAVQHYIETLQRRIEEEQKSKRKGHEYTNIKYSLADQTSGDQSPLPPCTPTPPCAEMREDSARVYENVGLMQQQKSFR
Briefly: Inhibition of SHP2 in human KYSE520 cells assessed as suppression of ERK phosphorylation after 2 hrs by AlphaScreen SureFire Phospho-ERK1/2 assay. Format: cell-based. (Alpha assays give light when donor and acceptor beads are brought close together.)

Data set [8] in a line: Clearance in Sprague-Dawley rat at 1 mg/kg, iv or 5 mg/kg, po relative to hepatic extraction. The settings on record: in vivo. It counts as ADME, organism-based.
Data set [9] can be described thus: Clearance in rat liver microsomes. It counts as ADME, Microsome. The note with it: read-out: CLH. For orientation: Liver microsomes are a subcellular fraction often used to study metabolism.
Data set [10] can be described thus: Half life in rat liver microsomes. It counts as ADME, Microsome.
Data set [11] deals with T1, Tyrosine-protein phosphatase non-receptor type 11. In words: Inhibition of human 6His-tagged SHP2 (2 to 593 residues) expressed in Escherichia coli BL21 Star (DE3) using DiFMUP as substrate preincubated for 30 mins followed by substrate addition by fluorescence assay.
Data set [12] concerns the target T2, Tyrosine-protein phosphatase non-receptor type 11 (Homo sapiens) (UniProt Q06124).
T2 sequence (whole entry): T1 sequence (Q06124 whole entry)
In words: Stabilization of SHP2 (unknown origin) assessed as thermal denaturation by measuring change in melting temperature at 100 uM by differential scanning fluorimetry.

The target of data set [13] is T2, Tyrosine-protein phosphatase non-receptor type 11 (Homo sapiens). In words: Inhibition of SHP2 (unknown origin) at 40 uM.

Sequence of Voltage-gated inwardly rectifying potassium channel KCNH2 (Q12809 whole entry): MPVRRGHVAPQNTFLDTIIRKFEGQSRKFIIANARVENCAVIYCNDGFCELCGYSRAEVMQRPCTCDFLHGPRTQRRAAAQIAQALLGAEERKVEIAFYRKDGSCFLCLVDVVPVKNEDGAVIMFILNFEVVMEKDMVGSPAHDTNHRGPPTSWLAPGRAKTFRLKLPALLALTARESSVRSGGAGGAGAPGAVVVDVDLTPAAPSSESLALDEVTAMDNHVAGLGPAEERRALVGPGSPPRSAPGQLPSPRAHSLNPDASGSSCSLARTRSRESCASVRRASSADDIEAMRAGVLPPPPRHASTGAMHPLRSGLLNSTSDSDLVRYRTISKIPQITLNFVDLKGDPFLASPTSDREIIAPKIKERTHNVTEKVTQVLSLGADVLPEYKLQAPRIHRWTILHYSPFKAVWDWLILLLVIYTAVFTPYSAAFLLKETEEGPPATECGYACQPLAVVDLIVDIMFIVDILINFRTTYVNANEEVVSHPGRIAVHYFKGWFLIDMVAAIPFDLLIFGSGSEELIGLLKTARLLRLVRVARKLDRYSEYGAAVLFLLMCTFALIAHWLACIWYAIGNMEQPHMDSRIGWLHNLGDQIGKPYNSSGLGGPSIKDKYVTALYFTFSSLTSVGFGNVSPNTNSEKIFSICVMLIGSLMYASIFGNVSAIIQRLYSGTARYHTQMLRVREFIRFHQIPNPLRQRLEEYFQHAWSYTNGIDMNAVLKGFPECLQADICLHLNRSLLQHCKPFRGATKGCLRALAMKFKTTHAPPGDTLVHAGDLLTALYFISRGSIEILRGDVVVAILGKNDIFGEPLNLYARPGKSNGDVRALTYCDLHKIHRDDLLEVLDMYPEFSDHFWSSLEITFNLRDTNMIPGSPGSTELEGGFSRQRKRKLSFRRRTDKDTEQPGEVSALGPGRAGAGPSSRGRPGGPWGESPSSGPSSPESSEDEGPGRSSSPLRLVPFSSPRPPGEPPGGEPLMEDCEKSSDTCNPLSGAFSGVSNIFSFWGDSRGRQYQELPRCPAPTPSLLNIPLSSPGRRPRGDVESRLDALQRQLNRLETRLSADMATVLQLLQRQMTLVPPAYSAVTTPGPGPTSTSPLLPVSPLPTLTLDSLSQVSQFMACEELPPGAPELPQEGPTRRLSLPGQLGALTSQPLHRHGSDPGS

Regarding `C[C@@H]1OCC2(CCN(c3nc4[nH]nc(-c5cccc(Cl)c5Cl)c4c(=O)n3C)CC2)[C@@H]1N`, the inhibition entry in the data set filed under Mus musculus [1] and in the data set listed under Mus musculus [5] was “Active” throughout. In the data set with KYSE-520 cell line, this compound gave a negative logarithm of the IC50 (pIC50) of 6.78. Moreover, the half-life in [2] was 4.6 h. The compound also displayed a bioavailability in data set [3] of 51%. In data set [4], this compound returned a Vd of 10.5 L/kg.

For the compound `C[C@@H]1OCC2(CCN(c3cnc4c(-c5cccc(Cl)c5Cl)c[nH]c4n3)CC2)[C@@H]1N`, the pIC50 was 8.15 in [6] and 6.32 in data set [7].

Turning to `Cc1nc(N)ccc1-c1n[nH]c2nc(N3CCC4(CC3)CO[C@@H](C)[C@H]4N)n(C)c(=O)c12`, the results for the pIC50 (with KYSE-520 cell line; in data set [6]; in data set [7]) were 6.18, 5.18 and 7.42, respectively.

Take `C[C@@H]1OCC2(CCN(c3nc4[nH]nc(-c5ccnc(NC6CC6)c5Cl)c4c(=O)n3C)CC2)[C@@H]1N`: in the data set with KYSE-520 cell line, the negative-log IC50 (pIC50) is 6.44. In addition, the results for the half-life in data set [2] and in data set [10] were 2.7 h and 0.887 h, respectively. In data set [3], this compound gave a bioavailability of 2%. In [4], this compound showed a Vd of 3.9 L/kg. The compound also registered a CL in [8] of 83%. For the same compound, in [9], the microsomal CLint was determined as 26.1 µL/min/mg.

Consider `C[C@@H]1OCC2(CCN(c3nc4[nH]nc(-c5ccnc(NC6CCC6)c5Cl)c4c(=O)n3C)CC2)[C@@H]1N`, for which the negative logarithm of the IC50 (pIC50) is 6.42 in the data set on KYSE-520 cell line, 6.46 in data set [11], 5.72 in data set [6] and 6.59 in data set [7].

`Cc1ccc(-c2cc(C(=O)O)c3c(-c4ccc(Br)cc4)n[nH]c3n2)cc1`: the thermal shift (ΔTm) in data set [12] is 0.62 °C. Further, the inhibition in [13] was found to be 30%.

With `Cn1c(N2CCC3(CCC[C@H]3N)CC2)nc2n[nH]c(-c3cccc(Cl)c3Cl)c2c1=O`, the pIC50 was 6.33 with KYSE-520 cell line, 7.51 in [11], 6.60 in data set [6] and 7.52 in [7].

Compound `Cn1c(N2CCC(C)(CN)CC2)nc2[nH]nc(-c3cccc(Cl)c3Cl)c2c1=O` gave a negative-log IC50 (pIC50) in the data set with KYSE-520 cell line of 4.87.

Consider `C[C@@H]1OCC2(CCN(c3nc4[nH]nc(-c5ccncc5)c4c(=O)n3C)CC2)[C@@H]1N`, for which the pIC50 in the data set on KYSE-520 cell line was 5.90; in data set [6], < 4.52; in data set [7] it was 6.89.

For `C[C@@H]1OCC2(CCN(c3cnc4c(-c5cccc(Cl)c5Cl)n[nH]c4n3)CC2)[C@@H]1N`, the negative-log IC50 (pIC50) in the data set on KYSE-520 cell line is 6.34.

As for `CN(C)Cc1ccc(-c2cc3onc(-c4ccccc4Cl)c3c(=O)n2C)cc1`, the thermal shift (ΔTm) in [12] came out at 0.67 °C. Moreover, in data set [13], the inhibition is 31%.

As to `CNc1nccc(-c2n[nH]c3nc(N4CCC5(CC4)CO[C@@H](C)[C@H]5N)n(C)c(=O)c23)c1Cl`, the pIC50 in the data set with KYSE-520 cell line was 6.43; in data set [11], 7.26; in data set [6], < 4.52; in data set [7] it was 7.66.

For the compound `C[C@@H]1OCC2(CCN(c3nc4[nH]nc(-c5ccnc(Cl)c5Cl)c4c(=O)n3C)CC2)[C@@H]1N`, the negative-log IC50 (pIC50) in the data set on KYSE-520 cell line was 5.59.

With `Cn1c(N2CCC3(CC2)COC[C@H]3N)nc2[nH]nc(-c3cccc(Cl)c3Cl)c2c1=O`, the values for the negative-log IC50 (pIC50) (with KYSE-520 cell line; in data set [7]) were 5.76 and 6.91, respectively.

For `C[C@@H]1OCC2(CCN(c3nc4[nH]nc(Sc5ccnc(N)c5Cl)c4c(=O)n3C)CC2)[C@@H]1N`, the results for the pIC50 (in the data set on KYSE-520 cell line; in data set [6]; in [7]) were 6.14, < 4.52 and 7.02, respectively.

In the case of `C[C@@H]1OCC2(CCN(c3nc4[nH]nc(-c5ccnc(N)c5Cl)c4c(=O)n3C)CC2)[C@@H]1N`, the pIC50 in the data set on KYSE-520 cell line is 5.92; in data set [11], 7.49; in [6], < 4.52; in data set [7], 6.99.

A word on the inhibition: it is the drop in the measured response relative to a control, in per cent. As usually defined, the pIC50 is the negative decadic logarithm of the IC50, by convention in mol/L. In general, bioavailability refers to the share of a dose that reaches the circulation, judged against a reference dose that is usually intravenous. Read a high bioavailability as good availability. As a reminder, the ΔTm is the change in melting temperature against a reference sample.
